Source: PubChem BioAssay (NCI)
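Abbreviation: GI50, concentration required for 50% inhibition of growth. The concentration for full growth arrest is given as TGI.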

Assays:
Assay in all cases: inhibition of tumour cell growth, NCI panel, 384-well format
TK-10 renal = system: TK-10 renal
UO-31 renal = system: UO-31 renal
HCC-2998 colon = system: HCC-2998 colon
RPMI-8226 leukemia = system: RPMI-8226 leukemia
SK-MEL-28 melanoma = system: SK-MEL-28 melanoma
A549 NSCLC = system: A549 NSCLC
NCI-H322M lung = system: NCI-H322M lung
RXF 393 renal = system: RXF 393 renal
MOLT-4 leukemia = system: MOLT-4 leukemia
HT29 colon = system: HT29 colon
HOP-92 NSCLC = system: HOP-92 NSCLC
SF-268 CNS = system: SF-268 CNS
A498 renal = system: A498 renal
COLO 205 colon = system: COLO 205 colon
SN12C renal = system: SN12C renal
786-0 renal = system: 786-0 renal
MDA-MB-435 melanoma = system: MDA-MB-435 melanoma
DU-145 prostate = system: DU-145 prostate
OVCAR-4 ovarian = system: OVCAR-4 ovarian
SR leukemia = system: SR leukemia
NCI/ADR-RES ovarian = system: NCI/ADR-RES ovarian
NCI-H23 lung = system: NCI-H23 lung
M14 melanoma = system: M14 melanoma
HS 578T breast = system: HS 578T breast
MCF7 breast = system: MCF7 breast
NCI-H522 lung = system: NCI-H522 lung
U251 glioblastoma = system: U251 glioblastoma
PC-3 prostate = system: PC-3 prostate
OVCAR-8 ovarian = system: OVCAR-8 ovarian
OVCAR-5 ovarian = system: OVCAR-5 ovarian
UACC-62 melanoma = system: UACC-62 melanoma
HL-60(TB) leukemia = system: HL-60(TB) leukemia
CCRF-CEM leukemia = system: CCRF-CEM leukemia
SNB-19 CNS = system: SNB-19 CNS
SF-295 CNS = system: SF-295 CNS
T-47D breast = system: T-47D breast
UACC-257 melanoma = system: UACC-257 melanoma
EKVX NSCLC = system: EKVX NSCLC
SK-OV-3 ovarian = system: SK-OV-3 ovarian
HCT-15 colon = system: HCT-15 colon
MDA-MB-468 breast = system: MDA-MB-468 breast
MDA-MB-231 breast = system: MDA-MB-231 breast
SK-MEL-2 melanoma = system: SK-MEL-2 melanoma
OVCAR-3 ovarian = system: OVCAR-3 ovarian
ACHN renal = system: ACHN renal
HOP-62 NSCLC = system: HOP-62 NSCLC
SW-620 colon = system: SW-620 colon

COc1ncc(-c2nc3c(n2C(C)C)[C@H](c2ccc(Cl)cc2)N(c2cc(Cl)cn(C)c2=O)C3=O)c(OC)n1
GI50 (TK-10 renal): > 68.4 µM
TGI (TK-10 renal): > 100 µM
GI50 (UO-31 renal): 12.4 µM
TGI (UO-31 renal): 28.2 µM
GI50 (HCC-2998 colon): 65.7 µM
TGI (HCC-2998 colon): > 100 µM
GI50 (RPMI-8226 leukemia): 20.7 µM
TGI (RPMI-8226 leukemia): 42.7 µM
GI50 (SK-MEL-28 melanoma): > 62.3 µM
TGI (SK-MEL-28 melanoma): > 100 µM
GI50 (A549 NSCLC): 16.6 µM
TGI (A549 NSCLC): 58.7 µM
GI50 (NCI-H322M lung): > 96 µM
TGI (NCI-H322M lung): > 100 µM
GI50 (RXF 393 renal): 35.5 µM
TGI (RXF 393 renal): > 89.3 µM
GI50 (MOLT-4 leukemia): 2.06 µM
TGI (MOLT-4 leukemia): 5.15 µM
GI50 (HT29 colon): 51.5 µM
TGI (HT29 colon): > 100 µM
GI50 (HOP-92 NSCLC): 24.8 µM
TGI (HOP-92 NSCLC): > 92.2 µM
GI50 (SF-268 CNS): > 50.5 µM
TGI (SF-268 CNS): > 77.9 µM
GI50 (A498 renal): 9.44 µM
TGI (A498 renal): 52.9 µM
GI50 (COLO 205 colon): 62.6 µM
TGI (COLO 205 colon): > 100 µM
GI50 (SN12C renal): > 93.2 µM
TGI (SN12C renal): > 100 µM
GI50 (786-0 renal): 62.7 µM
TGI (786-0 renal): > 100 µM
GI50 (MDA-MB-435 melanoma): 60.3 µM
TGI (MDA-MB-435 melanoma): > 100 µM
GI50 (DU-145 prostate): 64.4 µM
TGI (DU-145 prostate): > 100 µM
GI50 (OVCAR-4 ovarian): 28.9 µM
TGI (OVCAR-4 ovarian): > 100 µM
GI50 (SR leukemia): 1.96 µM
TGI (SR leukemia): 10.9 µM
GI50 (NCI/ADR-RES ovarian): 62.6 µM
TGI (NCI/ADR-RES ovarian): > 100 µM
GI50 (NCI-H23 lung): 60.6 µM
TGI (NCI-H23 lung): > 100 µM
GI50 (M14 melanoma): 48.5 µM
TGI (M14 melanoma): > 100 µM
GI50 (HS 578T breast): 33.3 µM
TGI (HS 578T breast): > 100 µM
GI50 (MCF7 breast): 24.7 µM
TGI (MCF7 breast): > 100 µM
GI50 (NCI-H522 lung): 48.4 µM
TGI (NCI-H522 lung): > 100 µM
GI50 (U251 glioblastoma): 65.4 µM
TGI (U251 glioblastoma): > 100 µM
GI50 (PC-3 prostate): 39.7 µM
TGI (PC-3 prostate): > 100 µM
GI50 (OVCAR-8 ovarian): 66.1 µM
TGI (OVCAR-8 ovarian): > 100 µM
GI50 (OVCAR-5 ovarian): > 100 µM
TGI (OVCAR-5 ovarian): > 100 µM
GI50 (UACC-62 melanoma): 5.25 µM
TGI (UACC-62 melanoma): 22.7 µM
GI50 (HL-60(TB) leukemia): 16.7 µM
TGI (HL-60(TB) leukemia): 31.1 µM
GI50 (CCRF-CEM leukemia): 22.9 µM
TGI (CCRF-CEM leukemia): 51.7 µM
GI50 (SNB-19 CNS): > 94.8 µM
TGI (SNB-19 CNS): > 100 µM
GI50 (SF-295 CNS): 63.6 µM
TGI (SF-295 CNS): > 100 µM
GI50 (T-47D breast): 34.3 µM
TGI (T-47D breast): > 91.8 µM
GI50 (UACC-257 melanoma): 17.5 µM
TGI (UACC-257 melanoma): 37.3 µM
GI50 (EKVX NSCLC): 58.7 µM
TGI (EKVX NSCLC): > 100 µM
GI50 (SK-OV-3 ovarian): > 76 µM
TGI (SK-OV-3 ovarian): > 100 µM
GI50 (HCT-15 colon): 36 µM
TGI (HCT-15 colon): > 100 µM
GI50 (MDA-MB-468 breast): 17.3 µM
TGI (MDA-MB-468 breast): 39.6 µM
GI50 (MDA-MB-231 breast): 44.6 µM
TGI (MDA-MB-231 breast): > 100 µM
GI50 (SK-MEL-2 melanoma): > 100 µM
TGI (SK-MEL-2 melanoma): > 100 µM
GI50 (OVCAR-3 ovarian): 33.3 µM
TGI (OVCAR-3 ovarian): 90 µM
GI50 (ACHN renal): 13.1 µM
TGI (ACHN renal): 47.8 µM
GI50 (HOP-62 NSCLC): > 51 µM
TGI (HOP-62 NSCLC): > 100 µM
GI50 (SW-620 colon): 53.5 µM
TGI (SW-620 colon): 97.8 µM
